Data from patent publication US11427558B1, “Indazoles and azaindazoles as LRRK2 inhibitors” (ESCAPE Bio, Inc., priority 2019, dated 2022).
One block for each compound: values may come before it.

What was measured:
[1] = biological target: Recombinant wild type LRRK2 protein (Homo sapiens (Human), UniProt Q5S007); test: LRRK2 kinase activity, LanthaScreen TR-FRET assay (wild type); format: biochemical; settings: LRRKtide 400 nM, 25 μM ATP, 60 min; read-out: LRRK2 WT IC50
Method: (§1) LRRK2 kinase activity was measured using a LanthaScreen™ Kinase Activity Assay from ThermoFisher Scientific. Recombinant wild type or G2019S-LRRK2 protein (Life Technologies, PR8604B or PV4881, respectively), was incubated with a fluorescein-labeled peptide substrate called LRRKtide that is based upon ezrin/radixin/moesin (ERM) (Life Technologies, PV4901) in the presence of ATP and serially diluted compound. […] Compound-dependent inhibition of the TR-FRET signal was used to generate a concentration-response curve for IC50 determination.
(§2) After 60 min incubation at room temperature, the reaction was stopped by addition of 10 μL of 2× stop solution containing a final concentration of 2 nM anti-pERM antibody and 10 mM EDTA. […] The ratio of the 520 nm and 495 nm emission was used to analyze the data.

[2] = biological target: Recombinant G2019S-LRRK2 protein (Homo sapiens (Human), UniProt Q5S007, G2019S); test: LRRK2 kinase activity, LanthaScreen TR-FRET assay (G2019S); format: biochemical; settings: LRRKtide 400 nM, 25 μM ATP, 60 min
Method: as §1, §2

Sequence of Recombinant wild type LRRK2 protein (Q5S007 whole entry): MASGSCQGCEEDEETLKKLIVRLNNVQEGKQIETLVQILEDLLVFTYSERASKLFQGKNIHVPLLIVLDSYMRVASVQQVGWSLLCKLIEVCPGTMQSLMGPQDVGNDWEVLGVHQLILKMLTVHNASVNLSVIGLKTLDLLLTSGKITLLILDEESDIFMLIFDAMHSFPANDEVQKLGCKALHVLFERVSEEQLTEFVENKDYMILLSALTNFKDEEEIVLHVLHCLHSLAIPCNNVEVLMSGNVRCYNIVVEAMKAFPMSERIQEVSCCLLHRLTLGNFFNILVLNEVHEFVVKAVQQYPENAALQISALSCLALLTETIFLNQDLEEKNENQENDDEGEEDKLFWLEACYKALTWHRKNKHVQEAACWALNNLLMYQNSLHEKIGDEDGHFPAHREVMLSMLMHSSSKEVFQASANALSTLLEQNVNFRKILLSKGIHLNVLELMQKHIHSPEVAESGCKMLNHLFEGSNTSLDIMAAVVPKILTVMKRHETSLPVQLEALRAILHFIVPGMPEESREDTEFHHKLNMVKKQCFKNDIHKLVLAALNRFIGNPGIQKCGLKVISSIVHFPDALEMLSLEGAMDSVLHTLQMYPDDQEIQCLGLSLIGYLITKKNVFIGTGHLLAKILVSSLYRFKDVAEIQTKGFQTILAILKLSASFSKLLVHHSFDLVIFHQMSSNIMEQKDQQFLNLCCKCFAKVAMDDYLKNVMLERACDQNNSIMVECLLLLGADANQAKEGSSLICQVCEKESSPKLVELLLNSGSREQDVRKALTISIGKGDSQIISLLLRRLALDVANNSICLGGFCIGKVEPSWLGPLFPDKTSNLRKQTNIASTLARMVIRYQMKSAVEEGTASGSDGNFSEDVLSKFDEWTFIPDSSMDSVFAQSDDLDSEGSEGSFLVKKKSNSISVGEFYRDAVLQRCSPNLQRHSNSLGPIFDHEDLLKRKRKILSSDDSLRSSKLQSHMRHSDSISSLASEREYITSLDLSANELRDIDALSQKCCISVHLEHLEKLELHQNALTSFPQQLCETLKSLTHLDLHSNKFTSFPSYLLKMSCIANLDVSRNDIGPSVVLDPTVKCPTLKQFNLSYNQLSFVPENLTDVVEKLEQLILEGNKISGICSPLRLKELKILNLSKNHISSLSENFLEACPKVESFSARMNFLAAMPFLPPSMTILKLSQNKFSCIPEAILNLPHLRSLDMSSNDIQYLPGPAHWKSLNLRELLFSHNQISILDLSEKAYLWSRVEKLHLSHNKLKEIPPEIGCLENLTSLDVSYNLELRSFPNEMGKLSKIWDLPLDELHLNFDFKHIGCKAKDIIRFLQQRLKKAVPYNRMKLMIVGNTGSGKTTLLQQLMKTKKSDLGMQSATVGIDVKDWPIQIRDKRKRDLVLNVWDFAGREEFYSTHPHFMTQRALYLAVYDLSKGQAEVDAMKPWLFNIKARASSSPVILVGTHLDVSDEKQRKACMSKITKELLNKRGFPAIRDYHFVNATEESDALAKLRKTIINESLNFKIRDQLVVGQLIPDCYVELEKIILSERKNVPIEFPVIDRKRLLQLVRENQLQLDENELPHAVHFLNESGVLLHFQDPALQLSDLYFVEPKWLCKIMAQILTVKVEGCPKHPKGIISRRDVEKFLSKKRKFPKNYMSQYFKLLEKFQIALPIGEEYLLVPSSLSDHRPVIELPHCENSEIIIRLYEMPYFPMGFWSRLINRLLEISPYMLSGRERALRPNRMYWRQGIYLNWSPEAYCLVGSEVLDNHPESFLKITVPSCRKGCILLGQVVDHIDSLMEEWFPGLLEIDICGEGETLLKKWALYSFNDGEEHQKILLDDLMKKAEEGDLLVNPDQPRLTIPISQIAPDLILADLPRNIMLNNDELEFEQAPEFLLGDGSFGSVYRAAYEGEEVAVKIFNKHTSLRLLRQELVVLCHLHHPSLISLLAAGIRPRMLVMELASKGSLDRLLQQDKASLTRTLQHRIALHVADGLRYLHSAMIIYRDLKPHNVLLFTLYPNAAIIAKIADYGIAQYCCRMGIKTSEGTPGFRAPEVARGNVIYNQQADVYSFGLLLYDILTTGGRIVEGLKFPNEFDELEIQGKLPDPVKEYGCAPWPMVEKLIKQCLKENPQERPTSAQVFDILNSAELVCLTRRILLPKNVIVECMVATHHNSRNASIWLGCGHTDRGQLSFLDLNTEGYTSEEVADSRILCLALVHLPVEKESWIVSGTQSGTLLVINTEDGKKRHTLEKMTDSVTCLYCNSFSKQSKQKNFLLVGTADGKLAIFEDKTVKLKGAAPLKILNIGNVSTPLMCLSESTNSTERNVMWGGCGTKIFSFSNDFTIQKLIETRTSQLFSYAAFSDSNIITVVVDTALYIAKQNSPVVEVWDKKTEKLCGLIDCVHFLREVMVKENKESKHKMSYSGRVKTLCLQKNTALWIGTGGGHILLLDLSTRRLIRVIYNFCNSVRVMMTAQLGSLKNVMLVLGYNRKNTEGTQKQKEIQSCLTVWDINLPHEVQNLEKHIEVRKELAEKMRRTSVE
Sequence of Recombinant G2019S-LRRK2 protein (Q5S007 whole entry G2019S): as the sequence (Q5S007 whole entry) above, with G2019S counted along it

IC50 [1]: 100 to 1000 nM
IC50 [2]: 100 to 1000 nM
SMILES: N#Cc1cnc(C(=O)Nc2ccc3[nH]nc(-c4ccoc4)c3c2)cc1Cl [Example 66, 4-Chloro-5-cyano-N-(3-(furan-3-yl)-1H-indazol-5-yl)picolinamide]

SMILES: Cc1c(C#N)cnc(C(=O)Nc2ccc3[nH]nc(-c4ccoc4)c3c2)c1C [Example 67, 5-Cyano-N-(3-(furan-3-yl)-1H-indazol-5-yl)-3,4-dimethylpicolinamide]
IC50 [1]: < 100 nM
IC50 [2]: < 100 nM

SMILES: COc1cncc(-c2n[nH]c3ccc(NC(=O)c4ncc(C#N)cc4C)cc23)c1 [Example 68, 5-Cyano-N-(3-(5-methoxypyridin-3-yl)-1H-indazol-5-yl)-3-methylpicolinamide]
IC50 [1]: 100 to 1000 nM
IC50 [2]: < 100 nM

SMILES: COc1cc(C#N)cnc1C(=O)Nc1ccc2[nH]nc(-c3ccoc3)c2c1 [Example 69, 5-Cyano-N-(3-(furan-3-yl)-1H-indazol-5-yl)-3-methoxypicolinamide]
IC50 [1]: 100 to 1000 nM
IC50 [2]: < 100 nM

SMILES: Cc1cc(C#N)cnc1C(=O)Nc1ccc2[nH]nc(-c3ccc(N4CCOCC4)cc3)c2c1 [Example 70, 5-Cyano-3-methyl-N-(3-(4-morpholinophenyl)-1H-indazol-5-yl)picolinamide]
IC50 [1]: 100 to 1000 nM
IC50 [2]: < 100 nM

SMILES: Cc1cc(C#N)cnc1C(=O)Nc1ccc2[nH]nc(-c3ccc4ocnc4c3)c2c1 [Example 71, N-(3-(Benzo[d]oxazol-5-yl)-1H-indazol-5-yl)-5-cyano-3-methylpicolinamide]
IC50 [1]: 100 to 1000 nM
IC50 [2]: < 100 nM

SMILES: COc1c(C#N)cccc1C(=O)Nc1ccc2[nH]nc(-c3ccoc3)c2c1 [Example 72, 3-Cyano-N-(3-(furan-3-yl)-1H-indazol-5-yl)-2-methoxybenzamide]
IC50 [1]: < 100 nM
IC50 [2]: < 100 nM

SMILES: Cc1cc(C#N)cnc1C(=O)Nc1ccc2[nH]nc(-c3ccsc3)c2c1 [Example 73, 5-Cyano-3-methyl-N-(3-(thiophen-3-yl)-1H-indazol-5-yl)picolinamide]
IC50 [1]: 100 to 1000 nM
IC50 [2]: < 100 nM

SMILES: Cc1cc(-c2n[nH]c3ccc(NC(=O)c4ncc(C#N)cc4C)cc23)ccn1 [Example 74, 5-Cyano-3-methyl-N-(3-(2-methylpyridin-4-yl)-1H-indazol-5-yl)picolinamide]
IC50 [1]: < 100 nM
IC50 [2]: < 100 nM

SMILES: CCc1c(C#N)cccc1C(=O)Nc1ccc2[nH]nc(-c3ccoc3)c2c1 [Example 75, 3-Cyano-2-ethyl-N-(3-(furan-3-yl)-1H-indazol-5-yl)benzamide]
IC50 [1]: < 100 nM
IC50 [2]: < 100 nM

SMILES: Cc1cc(C#N)cnc1C(=O)Nc1ccc2[nH]nc(-c3coc(C#N)c3)c2c1 [Example 76, 5-Cyano-N-(3-(5-cyanofuran-3-yl)-1H-indazol-5-yl)-3-methylpicolinamide]
IC50 [1]: < 100 nM
IC50 [2]: < 100 nM

SMILES: N#Cc1cccc(C(=O)Nc2ccc3[nH]nc(-c4ccoc4)c3c2)c1F [Example 77, 3-Cyano-2-fluoro-N-(3-(furan-3-yl)-1H-indazol-5-yl)benzamide]
IC50 [1]: < 100 nM
IC50 [2]: < 100 nM

SMILES: Cc1cc(C#N)cc(C(=O)Nc2ccc3[nH]nc(-c4ccoc4)c3c2)n1 [Example 78, 4-Cyano-N-(3-(furan-3-yl)-1H-indazol-5-yl)-6-methylpicolinamide]
IC50 [1]: 100 to 1000 nM
IC50 [2]: < 100 nM

IC50 [1]: 100 to 1000 nM
IC50 [2]: 100 to 1000 nM
SMILES: N#Cc1ccnc(C(=O)Nc2ccc3[nH]nc(-c4ccoc4)c3c2)c1F [Example 79, 4-Cyano-3-fluoro-N-(3-(furan-3-yl)-1H-indazol-5-yl)picolinamide]

IC50 [1]: 1000 to 10000 nM
IC50 [2]: 100 to 1000 nM
SMILES: Cc1cc(C#N)cnc1C(=O)Nc1cc(C)c2[nH]nc(-c3ccoc3)c2c1 [Example 80, 5-Cyano-N-(3-(furan-3-yl)-7-methyl-1H-indazol-5-yl)-3-methylpicolinamide]

SMILES: Cc1nn(C)c(C#N)c1C(=O)Nc1ccc2[nH]nc(-c3ccoc3)c2c1 [Example 81, 5-Cyano-N-(3-(furan-3-yl)-1H-indazol-5-yl)-1,3-dimethyl-1H-pyrazole-4-carboxamide]
IC50 [1]: < 100 nM
IC50 [2]: < 100 nM

SMILES: N#Cc1cc(C(=O)Nc2ccc3[nH]nc(-c4ccoc4)c3c2)no1 [Example 82, 5-Cyano-N-(3-(furan-3-yl)-1H-indazol-5-yl)isoxazole-3-carboxamide]
IC50 [1]: < 100 nM
IC50 [2]: < 100 nM

SMILES: CCc1cc(C#N)cnc1C(=O)Nc1ccc2[nH]nc(-c3ccoc3)c2c1 [Example 83, 5-Cyano-3-ethyl-N-(3-(furan-3-yl)-1H-indazol-5-yl)picolinamide]
IC50 [1]: 100 to 1000 nM
IC50 [2]: < 100 nM

SMILES: C=Cc1cc(C#N)cnc1C(=O)Nc1ccc2[nH]nc(-c3ccoc3)c2c1 [Example 84, 5-Cyano-N-(3-(furan-3-yl)-1H-indazol-5-yl)-3-vinylpicolinamide]
IC50 [1]: 100 to 1000 nM
IC50 [2]: < 100 nM

SMILES: Cc1cc(C(=O)Nc2ccc3[nH]nc(-c4ccoc4)c3c2)nc(C)c1C#N [Example 85, 5-cyano-N-(3-(furan-3-yl)-1H-indazol-5-yl)-4,6-dimethylpicolinamide]
IC50 [1]: 1000 to 10000 nM
IC50 [2]: < 100 nM

SMILES: N#Cc1cccc(C(=O)Nc2ccc3[nH]nc(-c4ccoc4)c3c2)c1Cl [Example 86, 2-chloro-3-cyano-N-(3-(furan-3-yl)-1H-indazol-5-yl)benzamide]
IC50 [1]: < 100 nM
IC50 [2]: < 100 nM

SMILES: Cc1cc(C#N)cnc1C(=O)Nc1ccc2[nH]nc(I)c2c1 [Example 87, 5-cyano-N-(3-iodo-1H-indazol-5-yl)-3-methylpicolinamide]
IC50 [1]: 100 to 1000 nM
IC50 [2]: < 100 nM

IC50 [1]: 1000 to 10000 nM
IC50 [2]: 100 to 1000 nM
SMILES: Cc1c(C#N)cccc1C(=O)Nc1cc(C)c2[nH]nc(-c3ccoc3)c2c1 [Example 88, 3-cyano-N-(3-(furan-3-yl)-7-methyl-1H-indazol-5-yl)-2-methylbenzamide]

SMILES: N#Cc1cccc(C(=O)Nc2ccc3[nH]nc(-c4ccoc4)c3c2)c1Br [Example 89, 2-bromo-3-cyano-N-(3-(furan-3-yl)-1H-indazol-5-yl)benzamide]
IC50 [1]: < 100 nM
IC50 [2]: < 100 nM

SMILES: Cc1c(C(=O)Nc2ccc3[nH]nc(-c4ccoc4)c3c2)c(C#N)nn1C [Example 90, 3-Cyano-N-(3-(furan-3-yl)-1H-indazol-5-yl)-1,5-dimethyl-1H-pyrazole-4-carboxamide]
IC50 [1]: < 100 nM
IC50 [2]: < 100 nM

SMILES: N#Cc1cc(C(=O)Nc2ccc3[nH]nc(-c4ccoc4)c3c2)ns1 [Example 91, 5-Cyano-N-(3-(furan-3-yl)-1H-indazol-5-yl)isothiazole-3-carboxamide]
IC50 [1]: < 100 nM
IC50 [2]: < 100 nM

SMILES: Cc1c(C#N)nn(C)c1C(=O)Nc1ccc2[nH]nc(-c3ccoc3)c2c1 [Example 92, 3-Cyano-N-(3-(furan-3-yl)-1H-indazol-5-yl)-1,4-dimethyl-1H-pyrazole-5-carboxamide]
IC50 [1]: 100 to 1000 nM
IC50 [2]: < 100 nM

IC50 [1]: 100 to 1000 nM
IC50 [2]: 100 to 1000 nM
SMILES: Cc1c(C(=O)Nc2ccc3[nH]nc(-c4ccoc4)c3c2)nn(C)c1C#N [Example 93, 5-Cyano-N-(3-(furan-3-yl)-1H-indazol-5-yl)-1,4-dimethyl-1H-pyrazole-3-carboxamide]

SMILES: Cc1cc(C(=O)Nc2ccc3[nH]nc(-c4ccoc4)c3c2)ncc1C#N [Example 94, 5-Cyano-N-(3-(furan-3-yl)-1H-indazol-5-yl)-4-methylpicolinamide]
IC50 [1]: 100 to 1000 nM
IC50 [2]: < 100 nM

SMILES: N#Cc1cnc(C(=O)Nc2ccc3[nH]nc(-c4ccoc4)c3c2)c(Cl)c1 [Example 95, 3-chloro-5-cyano-N-(3-(furan-3-yl)-1H-indazol-5-yl)picolinamide]
IC50 [1]: < 100 nM
IC50 [2]: < 100 nM
